Patent US12226410B2, “Methods for enhancing cellular clearance of pathological molecules via activation of the cellular protein ykt6” (NORTHWESTERN UNIVERSITY, priority 2019, dated 2025)

Key:
ykt6 = test: FTI treatment of DASYN53 mice: membrane-associated ykt6 and SNARE complexes; format: in vivo; details: DASYN53 mice 12-14 months; i.p. 0.9 mg/kg, 26d; olfactory bulbs, midbrain
Method: FIGS. 7A, 7B, 7C, 7D, and 7E. FTI treatment restores functional membrane-associated ykt6 complexes in DASYN53 mice. 7A) Immunohistochemistry in the midbrain of mice showing ykt6, tyrosine hydroxylase (TH), NeuN, and nuclei (DAPI). Scale bar, 50 μm. 7B) Ykt6 membrane shift analysis in olfactory bulbs of FTI (LNK-754)-injected DASYN53 mice (12-14 months, i.p. 26d, 0.9 mg/kg) (n=5, non-transgenic (nTg)+veh; n=4, DASYN53+veh; n=4 DASYN53+FTI). GAPDH and sec22b are loading controls. 7C) SEC/western blot analysis of midbrains of FTI-treated DASYN53 mice. Inputs are shown on the left. NSE is a loading control. […] (n=3, nTg+veh; n=4, DASYN53+veh; n=4 DASYN53+FTI). 7D) Quantification of complexes from SEC in 7C. 7E) GCase maturation was assessed in midbrain lysates by endo H resistance (n=4, nTg+veh; n=4, DASYN53+veh; n=4 DASYN53+FTI). For all quantifications, each point represents a measurement from an individual animal. Values are the mean+/−SEM, *p<0.05; **p<0.01, ***p<0.001, ANOVA with Tukey's post-hoc test.
Treatment of C57Bl/6 and DASYN53 mice with farnesyltransferase inhibitors. 3 mo old C57BL6 mice were i.p. injected daily with 0.9 mg/kg LNK-754 that was formulated in a vehicle of 0.5% sodium carboxymethylcellulose and filtered before use for 14 days. DASYN53 mice were i.p. injected daily with 0.9 mg/kg LNK-754 as above. […]

lysosomal GCase = test: Live cell GCase activity assay in A53T iPSn; format: cell-based, human
Method: FIGS. 6A, 6B, 6C, 6D, 6E, 6F, and 6G. FTIs enhance lysosomal GCase activity and reduce pathological a-syn by blocking ykt6 farnesylation. 6A) GCase activity in FTI-treated A53T iPSn at d80 (LNK-754 5 nM, 5d). 6B) GCase activity in FTI-treated A53T iPSn expressing empty vector (vect) or ykt6-CS (n=4). 6C) Lysosomal GCase activity was assessed in FTI-treated SHSY5Y cells transfected with scrambled or ykt6 shRNA (KD) (n=3). 6D) Quantification of Triton X-100 soluble (T-sol) a-syn by western blot from FTI-treated A53T iPSn (5 nM, 7d). *, non-specific band. (n=3). 6E) Quantification of insoluble a-syn from A53T iPSn as in D (n=3). 6F) Insoluble a-syn in FTI-treated H4 cells (5 nM, 5 days) transfected with either scrambled or ykt6 shRNA (n=6). 6G) Neuron viability was assessed in FTI-treated A53T iPSn (5 nM, 14d from d86-d100) by quantification of neurofilament protein. Right, neuron viability in FTI-treated A53T iPSn expressing empty vector or ykt6-CS (n=4). Values are the mean+/−SEM, *p<0.05, **p<0.01, ***p<0.001.
Live cell GCase activity assay. […] Fluorescent signal was quantified over time and normalized to total cell volume using CellTag 700 (Licor) or lysosomal mass by using cascade dextran blue (#D-1976, Thermofisher). […]
Treatment of cultures with farnesyltransferase inhibitors. […] Cultures were harvested and analyzed as described in the above sections.

a-syn = test: FTI treatment of wild-type mice: a-syn levels in cortex; format: in vivo; details: daily i.p. 0.9 mg/kg, 14 days
Method: FIGS. 15A, 15B, 15C, 15D, 15E, and 15F. FTI treatment of wild-type mice enhances ykt6 SNARE complexes, lysosomal activity, and reduces a-syn. 15A) Wild-type mice (C57Bl/6) were i.p. injected daily with FTI for 14 days at 0.9 mg/kg and compared to vehicle injected mice. Extracts from the cortex were analyzed for cytosolic (cyt) and membrane (mem) distribution of ykt6 (veh, n=5; FTI, n=6). 15B) Representative gel filtration/western blot analysis of cortical extracts of veh or FTI injected wild-type mice. Inputs are shown on the left. NSE indicates equal column loading. 15C) Quantification of ykt6 and STX5 complexes (ca. 120A) from gel filtration analysis in C (n=4 mice). Fraction 1 corresponds to complexes at 120A, while fractions 7-9 correspond to ykt6 monomers at 22-14 A. 15D) The levels of post ER (endo H resistant) GCase were analyzed by western blot and post ER/ER ratios were quantified from the cortex of FTI treated mice (veh, n=5; FTI, n=6). 15E) GCase activity was assessed in cortical lysates and normalized to total protein (veh, n=4; FTI, n=6). 15F) a-Syn levels were quantified from cytosolic or membrane isolated fractions from the cortex of wild-type FTI treated mice (veh, n=4; FTI, n=6). For all quantifications, values are the mean+/−SEM, *p<0.05.
Treatment of C57Bl/6 and DASYN53 mice with farnesyltransferase inhibitors. […]

C#Cc1cccc(-c2cc(=O)n(C)c3ccc([C@](O)(c4ccc(Cl)cc4)c4cncn4C)cc23)c1 [LNK-754]
reduced membrane-associated ykt6 and SNARE complexes of DASYN53 mice (ykt6): reversed these effects
lysosomal GCase activity (lysosomal GCase; 1 nM): partially rescued
lysosomal GCase activity (lysosomal GCase; 4 and 10 nM): near-complete rescue
a-syn levels (a-syn): reduced a-syn levels
